# Source: patent EP3415523A1, “COMBINATION MEDICAMENT COMPRISING A PRODRUG AND INHALABLE CATALYST” (priority 2017, dated 2018)
# Experiments:
# mammalian cells = conditions: in vitro test on mammalian cells; cited from earlier work
# A549 cells [1] = assay: Extracellular prodrug activation, viability assay (PrestoBlue); assay type: cell-based; conditions: 0.05 µM; for viability: 3 days
# Description: A549 cells were seeded in 96-well plates at a cell concentration of 4,000 cells/well and incubated overnight before treatment. Each well was then replaced with 100 µL of fresh F-12K medium containing protected gemcitabine (0.05 µM) and DMSO (2% v/v), control wells were replaced with 100 µL of fresh F-12K medium and DMSO (2% v/v). Plates were incubated for 1 h before 10 µL of a platinum nanoparticles solution (50 ppm, 3 nm diameter) was added to each well and 10 µL of water was added to control wells. Plates were incubated for 1 h before placing them in a custom-designed gas chamber. Control plates were left untouched in the incubator. The chamber was placed in the incubator, connected to a gas bottle outside the incubator and to an outlet. The gas chamber was flushed for 1 min with hydrogen gas at 1 bar and closed. Plates were incubated 2 h in the gas chamber before placing them back in the incubator with the control plates. Control and treated plates were incubated for 72 h before PrestoBlue cell viability reagent (10% v/v) was added to each well and the plate incubated for 2 h. Fluorescence emission was measured using a microplate reader (Tecan; ex: 540 nm; em: 590 nm).
# This could be due to a constitutively occurring slow reduction of the nitro group by the cells. […] Although this would require further investigations, it could be a consequence of the increased lipophilicity of the protected drug thereby conferring an increased uptake of the drug with respect to its deprotected counterpart.
# A549 cells [2] = assay: EC50 experiments, dose response of cell viability (PrestoBlue); assay type: cell-based; conditions: 3 days of treatment, prodrug versus its deprotected counterpart (gemcitabine)
# Description: A549 cells were seeded in 96-well plates at a cell concentration of 2,000 cells/well and incubated overnight before treatment. Each well was then replaced with 100 µL of fresh F-12K medium containing protected gemcitabine (concentration ranging from 10^4 µM to 10^-4 µM) and DMSO (2% v/v), control wells were replaced with 100 µL of fresh F-12K medium and DMSO (2% v/v). Control and treated plates were incubated for 72 h before PrestoBlue cell viability reagent (10% v/v) was added to each well and the plate incubated for 2 h. Fluorescence emission was measured using a microplate reader (Tecan; ex: 540 nm; em: 590 nm).
# Dose-response experiments were performed in order to determine the half maximal effective concentration (EC50) of both the drug as well as the prodrug.
smiles,measurement,setting,value
Cc1ccc(N)cc1 [p-toluidine],mutagenic / genotoxic,mammalian cells,neither mutagenic nor genotoxic
"O=C(Nc1ccn([C@@H]2O[C@H](CO)[C@@H](O)C2(F)F)c(=O)n1)OCc1ccc([N+](=O)[O-])cc1 [gemcitabine prodrug, p-Nitrobenzyloxycarbonyl Gemcitabine]",viability,"A549 cells [1]; both hydrogen and platinum present, compared with positive control gemcitabine",slightly lower viability than the positive control with gemcitabine
same,viability,A549 cells [1]; the 3 conditions where either hydrogen and/or platinum is missing,A small decrease
same,activity of the drug,"A549 cells [1]; Fig. 7 and Fig. 8, 3 days, 5 ppm or 10 ppm platinum nanoparticles, four conditions with/without hydrogen and catalyst",only recovered if both the hydrogen and the platinum nanoparticles are present
same,difference of EC50 values of drug and prodrug,A549 cells [2],about 5 orders of magnitude
